Laboratory results taken from patent US6514686B2, “Method and composition for modulating amyloidosis” (The University of British Columbia, priority 1997, dated 2003).

Key:
MDR1 = conditions: cited from earlier work
[1] = tested on: Aβ secretion in K269sw cells transfected with human pHaMDR1 construct; experiment: Aβ secretion from K269sw cells transiently transfected with pHaMDR1 (W0-2 western blot); format: cell-based; conditions: RU49953 0.01-1.0 μM, fifteen minutes; FIG. 12
Experimental: K269sw cells were cultured in 20 mm Falcon dishes in DMEM containing 10% FBS, and […] geneticin (GIBCO) to about 50% confluence and transiently transfected with the human pHaMDR1 construct using the calcium-phosphate precipitation technique as described above. Cells were replated at a density of 2.0×10^6 cells/dish 8 hours post-transfection on 10 cm petri dishes as described above. To assay for transfection efficiency, the β-gal gene was also co-transfected into the cells. β-gal staining was performed to determine the percentage of cells within each dish which were successfully transfected with the cDNA.
Exposures were performed without resuspending the cells. 10 mL of DMEM containing either control (DMSO), PMA (0.1 μM), or RU486 (0.001 μM, 0.01 μM, 0.1 μM, 1.0 μM), were prepared. DMSO concentrations in the medium were normalized to 0.01% (v/v). The supplemented medium was aspirated and 1 mL of the appropriate medium was added to the cells. […] 5 μL from each sample was collected for protein quantification. […]
SDS-PAGE was used to resolve secreted protein on a 16.5% tris-tricine polyacrylamide gel. […] Aβ was visualized using ECL and quantitation was performed as previously described. […]
Exposures were performed without resuspending the cells. […] 5 μL from each sample was collected for protein quantification. […]

In the case of `CC#C[C@]1(O)CC[C@H]2[C@@H]3CCC4=CC(=O)CCC4=C3[C@@H](c3ccc(N(C)C)cc3)C[C@@]21C` [RU49953, 17β-hydroxy-11β, 17α-[4-dimethylaminophenyl]-17α prop-1-ynyl estra-4, 9 dien-3 one], the “binding to and block of MDR1 mediated efflux” value (MDR1) is given as “bind to and block” and the “effect on Aβ secretion” value [1] is given as “reduces Aβ secretion in fifteen minutes in a dose-dependent manner”.
